Experimental data reported in patent US9661854B2, “Molecules having pesticidal utility, and intermediates, compositions, and processes, related thereto” (Dow AgroSciences LLC, priority 2015, dated 2017).

How the values were obtained:
[1] = tested on: Beet Armyworm (Spodoptera exigua, LAPHEG); experiment: Bioassay on Beet Armyworm (BAW), 128-well diet tray assay; type: in vivo; settings: 168 h, 50 μg/cm^2 on artificial diet, second instar larvae, 25° C., five to seven days, average of eight wells, read-out: BAW % Control (or Mortality) rating
Experimental: (§1) Example A: Bioassays on Beet Armyworm (Spodoptera exigua, LAPHEG) (“BAW”) and Cabbage Looper (Trichoplusia ni, TRIPNI) (“CL”)
(§2) Certain molecules disclosed in this document were tested against BAW and CL using procedures described in the following examples. In the reporting of the results, the “BAW & CL Rating Table” was used (See Table Section).
Bioassays on BAW were conducted using a 128-well diet tray assay. One to five second instar BAW larvae were placed in each well (3 mL) of the diet tray that had been previously filled with 1 mL of artificial diet to which 50 μg/cm^2 of the test molecule (dissolved in 50 μL of 90:10 acetone-water mixture) had been applied (to each of eight wells) and then allowed to dry. Trays were covered with a clear self-adhesive cover, vented to allow gas exchange, and held at 25° C., 14:10 light-dark for five to seven days. Percent mortality was recorded for the larvae in each well; activity in the eight wells was then averaged. The results are indicated in the table entitled “Table ABC: Biological Results” (See Table Section).

[2] = tested on: Cabbage Looper (Trichoplusia ni, TRIPNI); experiment: Bioassay on Cabbage Looper (CL), 128-well diet tray assay; type: in vivo; settings: 168 h, 50 μg/cm^2 on artificial diet, second instar larvae, 25° C., five to seven days, average of eight wells, read-out: CL % Control (or Mortality) rating
Experimental: as §1, §2
Bioassays on CL were conducted using a 128-well diet tray assay. One to five second instar CL larvae were placed in each well (3 mL) of the diet tray that had been previously filled with 1 mL of artificial diet to which 50 μg/cm^2 of the test molecule (dissolved in 50 μL of 90:10 acetone-water mixture) had been applied (to each of eight wells) and then allowed to dry. Trays were covered with a clear self-adhesive cover, vented to allow gas exchange, and held at 25° C., 14:10 light-dark for five to seven days. Percent mortality was recorded for the larvae in each well; activity in the eight wells was then averaged. The results are indicated in the table entitled “Table ABC: Biological Results” (See Table Section).

SMILES | mortality at 50 µg/cm2 [1] [%] | mortality at 50 µg/cm2 [2] [%]
Cc1ccc(C(C)C)c(N2C(=O)CS/C2=N\C(=O)Nc2ccc(CCc3ncn(-c4ccc(OC(F)(F)F)cc4)n3)cc2)c1 [F1, (Z)-1-(3-(2-isopropyl-5-methylphenyl)-4-oxothiazolidin-2-ylidene)-3-(4-(2-(1-(4-(trifluoromethoxy)phenyl)-1H-1,2,4-triazol-3-yl)ethyl)phenyl)urea] | 50 to 100 | 50 to 100
Cc1ccc(C(C)C)c(N2C(=O)CS/C2=N\C(=O)Nc2ccc(CCc3ncn(-c4ccc(OC(F)(F)F)cc4)n3)c(C)c2)c1 [F2, (Z)-1-(3-(2-Isopropyl-5-methylphenyl)-4-oxothiazolidin-2-ylidene)-3-(3-methyl-4-(2-(1-(4-(trifluoromethoxy)phenyl)-1H-1,2,4-triazol-3-yl)ethyl)phenyl)urea] | 50 to 100 | 50 to 100
Cc1ccc(F)c(N2C(=O)CS/C2=N\C(=O)Nc2ccc(CCc3ncn(-c4ccc(OC(F)(F)F)cc4)n3)cc2)c1 [F3, (Z)-1-(3-(2-Fluoro-5-methylphenyl)-4-oxothiazolidin-2-ylidene)-3-(4-(2-(1-(4-(trifluoromethoxy)phenyl)-1H-1,2,4-triazol-3-yl)ethyl)phenyl)urea] | 50 to 100 | 50 to 100
Cc1ccc(C(F)(F)F)c(N2C(=O)CS/C2=N\C(=O)Nc2ccc(CCc3ncn(-c4ccc(OC(F)(F)F)cc4)n3)cc2)c1 [F5, (Z)-1-(3-(5-Methyl-2-(trifluoromethyl)phenyl)-4-oxothiazolidin-2-ylidene)-3-(4-(2-(1-(4-(trifluoromethoxy)phenyl)-1H-1,2,4-triazol-3-yl)ethyl)phenyl)urea] | 50 to 100 | 50 to 100
Cc1ccc(Cl)c(N2C(=O)CS/C2=N\C(=O)Nc2ccc(CCc3ncn(-c4ccc(OC(F)(F)F)cc4)n3)cc2)c1 [F6, (Z)-1-(3-(2-Chloro-5-methylphenyl)-4-oxothiazolidin-2-ylidene)-3-(4-(2-(1-(4-(trifluoromethoxy)phenyl)-1H-1,2,4-triazol-3-yl)ethyl)phenyl)urea] | 50 to 100 | 50 to 100
CCCc1ccc(C)cc1N1C(=O)CS/C1=N\C(=O)Nc1ccc(CCc2ncn(-c3ccc(OC(F)(F)F)cc3)n2)cc1 [F7, (Z)-1-(3-(5-Methyl-2-propylphenyl)-4-oxothiazolidin-2-ylidene)-3-(4-(2-(1-(4-(trifluoromethoxy)phenyl)-1H-1,2,4-triazol-3-yl)ethyl)phenyl)urea] | 50 to 100 | 50 to 100
CCOc1ccc(C)cc1N1C(=O)CS/C1=N\C(=O)Nc1ccc(CCc2ncn(-c3ccc(OC(F)(F)F)cc3)n2)cc1 [F8, (Z)-1-(3-(2-Ethoxy-5-methylphenyl)-4-oxothiazolidin-2-ylidene)-3-(4-(2-(1-(4-(trifluoromethoxy)phenyl)-1H-1,2,4-triazol-3-yl)ethyl)phenyl)urea] | 50 to 100 | 50 to 100
Cc1cc(N2C(=O)CS/C2=N\C(=O)Nc2ccc(CCc3ncn(-c4ccc(OC(F)(F)F)cc4)n3)cc2)c(C(C)C)cc1F [F9, (Z)-1-(3-(4-Fluoro-2-isopropyl-5-methylphenyl)-4-oxothiazolidin-2-ylidene)-3-(4-(2-(1-(4-(trifluoromethoxy)phenyl)-1H-1,2,4-triazol-3-yl)ethyl)phenyl)urea] | 50 to 100 | 50 to 100
CCC(C)Oc1ccc(C)cc1N1C(=O)CS/C1=N\C(=O)Nc1ccc(CCc2ncn(-c3ccc(OC(F)(F)F)cc3)n2)cc1 (stereo not shown) [F10, (Z)-1-(3-(2-(sec-Butoxy)-5-methylphenyl)-4-oxothiazolidin-2-ylidene)-3-(4-(2-(1-(4-(trifluoromethoxy)phenyl)-1H-1,2,4-triazol-3-yl)ethyl)phenyl)urea] | 50 to 100 | 50 to 100
Cc1ccc(OC(C)C)c(N2C(=O)CS/C2=N\C(=O)Nc2ccc(CCc3ncn(-c4ccc(OC(F)(F)F)cc4)n3)cc2)c1 [F11, (Z)-1-(3-(2-Isopropoxy-5-methylphenyl)-4-oxothiazolidin-2-ylidene)-3-(4-(2-(1-(4-(trifluoromethoxy)phenyl)-1H-1,2,4-triazol-3-yl)ethyl)phenyl)urea] | 50 to 100 | 50 to 100
Cc1ccc(OC(F)(F)F)c(N2C(=O)CS/C2=N\C(=O)Nc2ccc(CCc3ncn(-c4ccc(OC(F)(F)F)cc4)n3)cc2)c1 [F12, (Z)-1-(3-(5-Methyl-2-(trifluoromethoxy)phenyl)-4-oxothiazolidin-2-ylidene)-3-(4-(2-(1-(4-(trifluoromethoxy)phenyl)-1H-1,2,4-triazol-3-yl)ethyl)phenyl)urea] | 50 to 100 | 50 to 100
Cc1ccc(OCC(F)(F)F)c(N2C(=O)CS/C2=N\C(=O)Nc2ccc(CCc3ncn(-c4ccc(OC(F)(F)F)cc4)n3)cc2)c1 [F13, (Z)-1-(3-(5-Methyl-2-(2,2,2-trifluoroethoxy)phenyl)-4-oxothiazolidin-2-ylidene)-3-(4-(2-(1-(4-(trifluoromethoxy)phenyl)-1H-1,2,4-triazol-3-yl)ethyl)phenyl)urea] | 50 to 100 | 50 to 100
COC(=O)c1cc(CCc2ncn(-c3ccc(OC(F)(F)F)cc3)n2)ccc1NC(=O)/N=C1\SCC(=O)N1c1cc(C)ccc1C(C)C [F16, Methyl (Z)-2-(3-(3-(2-isopropyl-5-methylphenyl)-4-oxothiazolidin-2-ylidene)ureido)-5-(2-(1-(4-(trifluoromethoxy)phenyl)-1H-1,2,4-triazol-3-yl)ethyl)benzoate] | 50 to 100 | 50 to 100
Cc1ccc(C(C)C)c(N2C(=O)CS/C2=N\C(=O)Nc2ccc(CCc3ncn(-c4ccc(OC(F)(F)F)cc4)n3)cc2F)c1 [F17, (Z)-1-(2-Fluoro-4-(2-(1-(4-(trifluoromethoxy)phenyl)-1H-1,2,4-triazol-3-yl)ethyl)phenyl)-3-(3-(2-isopropyl-5-methylphenyl)-4-oxothiazolidin-2-ylidene)urea] | 50 to 100 | 50 to 100
Cc1ccc(C(C)C)c(N2C(=O)CS/C2=N\C(=O)Nc2ccc(CCc3ncn(-c4ccc(OC(F)(F)F)cc4)n3)cc2Cl)c1 [F18, (Z)-1-(2-Chloro-4-(2-(1-(4-(trifluoromethoxy)phenyl)-1H-1,2,4-triazol-3-yl)ethyl)phenyl)-3-(3-(2-isopropyl-5-methylphenyl)-4-oxothiazolidin-2-ylidene)urea] | 50 to 100 | 50 to 100
Cc1ccc(C(C)C)c(N2C(=O)CS/C2=N\C(=O)Nc2c(F)cc(CCc3ncn(-c4ccc(OC(F)(F)F)cc4)n3)cc2F)c1 [F19, (Z)-1-(2,6-Difluoro-4-(2-(1-(4-(trifluoromethoxy)phenyl)-1H-1,2,4-triazol-3-yl)ethyl)phenyl)-3-(3-(2-isopropyl-5-methylphenyl)-4-oxothiazolidin-2-ylidene)urea] | 50 to 100 | 50 to 100
COc1cc(CCc2ncn(-c3ccc(OC(F)(F)F)cc3)n2)ccc1NC(=O)/N=C1\SCC(=O)N1c1cc(C)ccc1C(C)C [F20, (Z)-1-(3-(2-Isopropyl-5-methylphenyl)-4-oxothiazolidin-2-ylidene)-3-(2-methoxy-4-(2-(1-(4-(trifluoromethoxy)phenyl)-1H-1,2,4-triazol-3-yl)ethyl)phenyl)urea] | 50 to 100 | 50 to 100
COCc1ccc(C)cc1N1C(=O)CS/C1=N\C(=O)Nc1ccc(CCc2ncn(-c3ccc(OC(F)(F)F)cc3)n2)cc1 [F21, (Z)-1-(3-(2-(Methoxymethyl)-5-methylphenyl)-4-oxothiazolidin-2-ylidene)-3-(4-(2-(1-(4-(trifluoromethoxy)phenyl)-1H-1,2,4-triazol-3-yl)ethyl)phenyl)urea] | 50 to 100 | 50 to 100
COCc1ccc(C)cc1N1C(=O)CS/C1=N\C(=O)Nc1ccc(CCc2ncn(-c3ccc(OC(F)(F)F)cc3)n2)cc1F [F22, (Z)-1-(2-Fluoro-4-(2-(1-(4-(trifluoromethoxy)phenyl)-1H-1,2,4-triazol-3-yl)ethyl)phenyl)-3-(3-(2-(methoxymethyl)-5-methylphenyl)-4-oxothiazolidin-2-ylidene)urea] | 50 to 100 | 50 to 100
CCC(C)Oc1ccc(C)cc1N1C(=O)CS/C1=N\C(=O)Nc1ccc(CCc2ncn(-c3ccc(OC(F)(F)F)cc3)n2)cc1F (stereo not shown) [F24, (Z)-1-(3-(2-(sec-Butoxy)-5-methylphenyl)-4-oxothiazolidin-2-ylidene)-3-(2-fluoro-4-(2-(1-(4-(trifluoromethoxy)phenyl)-1H-1,2,4-triazol-3-yl)ethyl)phenyl)urea] | 50 to 100 | 50 to 100
